{
  "source": "patent US20220347294A1",
  "about": "“COMPOSITIONS AND METHODS FOR INCREASING THE EFFICACY OF IMMUNOTHERAPIES AND VACCINES” (The Regents of the University of Michigan, priority 2019, published 2022)",
  "key": {"CT26 tumor": {"test_system": "CT26 tumor", "test": "Tumor microenvironment analysis (tumor-infiltrating cells, flow cytometry)", "type": "in vivo, BALB/c mice", "settings": "combined with α-PD-1 IgG, day 24", "protocol": "After treatment with various samples, tumor tissues were excised at preset time points for analysis of tumor-infiltrating T cells. Tumor tissues were excised, cut into small pieces, and incubated with collagenase type IV (1 mg/ml) and of DNase I (0.1 mg/ml) with gentle shaking. After 30 min, cell suspension was filtered through a 70-μm strainer. Cells were washed with FACS buffer and blocked with anti-CD16/32 antibody. Cells were then stained with various antibodies (CD4 Monoclonal Antibody (GK1.5)-PE (eBioscience), APC-Anti-CD45 Rat Monoclonal Antibody (clone: 30-F11), FITC-Anti-CD45 Rat Monoclonal Antibody (clone: 30-F11), FITC-Rat Anti-Mouse CD8a Clone 53-6.7 (BD Biosciences), PE labeled H-2L-restricted SPSYVYHQF (SEQ ID NO.: 1), FITC-Anti-CD86 Rat Monoclonal Antibody (clone: GL-1, BioLegend), PE-CD11c Armenian Hamster anti Mouse (Clone: N418, eBioscience), PE-Cy7-Anti-mouse PD-1 (clone: 29F.1A12, BioLegend), FITC-CD44 Rat anti-Human/Mouse (clone: IM7, eBioscience), PE-Cy7-CD62L Monoclonal Antibody (MEL-14) (eBioscience), PE-Tcf1/Tcf7 (C63D9) Rabbit mAb (Cell Signaling Technology, #14456), PE-Cy7-Anti-mouse CD86 (Clone: GL1, BD Bioscience), FITC anti-mouse/human CD11b (M1/70, BioLegend), PE-anti-mouse F4/80 (BM8, BioLegend), or APC anti-mouse CD206 (MMR, BioLegend)). The cells were washed and stained with DAPI, or 7-AAD, or efluor 450 for flow cytometric analysis."}, "gut microbiota": {"test_system": "gut microbiota", "test": "Gut microbiome analysis by 16S rRNA sequencing of fecal pellets", "type": "in vivo, BALB/c mice", "protocol": "FIG. 4A-H: Responses of the diversity, richness, and structure of the gut microbiota. 1.5×10^5 CT26 cells were inoculated in BALB/c mice subcutaneously and gavaged from day 7 (5 times per week). α-PD-1 (100 μg per dose) was ip injected on days 11, 15, 19 and 23. The fecal pellets were collected on day 21 for 16s RNA analysis. (A) OTU number, (B) inverse Simposon diversity and (C) nonmetric multidimensional scaling (NMDS) score plot (based on Bray-Curtis) of gut microbiota in various groups. (D) Relative abundances of the gut microbiota at family level and […] genus level. (F) The relative abundances of lactobacillus, akkermansia, roseburia and Ruminococcus_1 in various groups. (G) The relationship of between the tumor sizes and the relative abundances of lactobacillus, akkermansia, roseburia and Ruminococcus_1. (H) The heatmap of SCFAs (lactate, propionate and butyrate) levels of various groups in fecal pellets. Data represent mean±SEM. *p<0.05, **p<0.01, ****p<0.0001, analysed by one-way ANOVA (A, B, F).\nTumor-bearing mice received treatments as indicated above. […] Pooled amplicon library was then sequenced on the Illumina MiSeq platform using the 500 cycle MiSeq V2 Reagent kit (catalog no. MS-102-2003) according to the manufacturer's instructions with modifications of the primer set with custom read 1/read 2 and index primers added to the reagent cartridge. […]"}},
  "data": [
    {"substance": "inulin", "values": [
      {"measurement": "intratumoral infiltration of T cells compared with α-PD-1 IgG alone", "setting": "CT26 tumor", "value": "significantly enhanced"},
      {"measurement": "abundance of Roseburia in the gut", "setting": "gut microbiota; oral gavage with α-PD-1", "value": "increased"},
      {"measurement": "relative abundance of Akkermansia, Lactobacillus, Ruminococcus, and Butyricicoccus", "setting": "gut microbiota; oral inulin followed by α-PD-1, compared with α-PD-1 alone or PBS group", "value": "increased"}
    ]}
  ]
}
